# According to PubChem BioAssay AID1159563 (GlaxoSmithKline (GSK), 2015):
# pIC50: −log10 of the molar value. The source made the active and inactive calls. The rule behind the calls is not given here.
# System: HepG2 cytotoxicity
# Experiment: human hepatoma cell viability loss – cytotoxicity control (AID 1159563)
SMILES,IC50,pIC50
COc1cccc(-c2cc(C(F)(F)F)nc(-n3ccc([N+](=O)[O-])n3)n2)c1,> 100 µM (inactive),–
CCOc1ccc(NC(=O)C=Cc2ccc(CC)o2)cc1,–,4.10
O=[N+]([O-])c1ccc(-c2nnn(-c3cccnc3)n2)o1,> 100 µM (inactive),–
Cc1cn[nH]c1C1CCCN(Cc2nc3ccccc3n2C)C1 (stereo unspecified),–,4.30
O=C(COc1ccccc1)Nc1ccccc1C(=O)Nc1nccs1,> 100 µM (inactive),–
COc1ccc(Cl)cc1CC(=O)Nc1n[nH]c(-c2ccccn2)n1,–,4.49
COc1ccc(C(=O)NC2CCN(CCn3c(=O)ccc4ncc(F)cc43)CC2)cc1Cl,> 100 µM (inactive),–
CN(C)c1ncc(-c2cncn2CCOc2ccc(Cl)cc2)cn1,> 100 µM (inactive),–
O=C(c1cc2cc(Cl)ccc2[nH]1)N1CCCCC1c1cccnc1 (stereo unspecified),–,4.40
NCc1csc(Nc2cc(Oc3ccccc3)ncn2)n1,> 100 µM (inactive),–
CC(=O)Nc1ccc(CN2CCC(N3CC(c4ccccc4)(c4ccccc4)OCC3=O)CC2)cc1,–,4.10
O=S(=O)(NCC(c1cccnc1)N1CCN(c2ccc(F)cc2)CC1)c1cccs1 (stereo unspecified),> 100 µM (inactive),–
CC(c1ccc2c(c1)CCCC2)N(C)c1ncc2c(N)nc(N)nc2n1 (stereo unspecified),–,4.30
CC(C(=O)Nc1ccc(Br)cc1)N1CCN(c2ccc([N+](=O)[O-])cc2)CC1 (stereo unspecified),> 100 µM (inactive),–
CCOc1ccc(CN(C)Cc2nc(N)nc(Nc3ccc(C)cc3)n2)cc1,–,4.49
Cc1cc(C)c(C#N)c(SCC(=O)c2ccc3c(c2)OCO3)n1,> 100 µM (inactive),–
Cc1cc(Oc2cc(Cl)c(Cl)cc2Cl)n2ncnc2n1,–,4.49
COc1ccc(NS(=O)(=O)c2ccc(S(=O)(=O)N(C)C3CCCCC3)cc2)c2ncccc12,> 100 µM (inactive),–
COc1ccc(OC)c2c(=O)c(Cc3ccccc3)c(C)[nH]c12,> 100 µM (inactive),–
O=C(CN(Cc1ccccn1)Cc1ccccn1)NCc1ccc2c(c1)OCO2,> 160 µM (inactive),–
Cc1c(Nc2cc(C3CC3)[nH]n2)ccc(C#N)c1Cl,–,4.40
O=c1ccc2ccc(F)c3c2n1C[C@H]3CN1CCN(CC(O)c2cc3c(cn2)OCS3)CC1 (stereo partly specified),> 100 µM (inactive),–
CC(C)CC(=O)NC(c1cccs1)c1ccc2cccnc2c1O (stereo unspecified),> 100 µM (inactive),–
COc1cc(-c2nc(N3CCOCC3)sc2-c2ccnc(NC3CCOCC3)n2)ccc1Cl,> 100 µM (inactive),–
Cc1nn(-c2nc(N)nc(-c3ccccn3)n2)c(N)c1-c1ccccc1,–,4.20
COc1ccc(C(C)(C)C)cc1S(=O)(=O)n1ccnc1,> 100 µM (inactive),–

SMILES,IC50,pIC50
OC[C@@H](Nc1nccc(-c2c(-c3ccc(F)cc3)ncn2C2CCNCC2)n1)c1ccccc1,–,4.00
CC(c1ccccn1)N(C)Cc1nc2ccccc2n1C(C)C (stereo unspecified),–,4.60
Cc1nn(-c2nc(N)nc(-c3ccccn3)n2)c(C)c1Cc1ccccc1,> 100 µM (inactive),–
Fc1ccc(OC2CC(NCc3cccc4cn[nH]c34)C2)cc1C(F)(F)F (stereo unspecified),–,4.60
COc1cc(F)c2ncc(F)c(CCN3CC[C@H](NCc4cc5c(cn4)OCS5)[C@@H](O)C3)c2c1,–,4.30
O=C(NC1C(=O)N(c2ccccc2)C1c1cccnc1)c1ccc(Cl)s1 (stereo unspecified),> 100 µM (inactive),–
O=C(c1ccccc1)N1CCC(C(=O)N2CCC(Oc3ccccc3Cl)CC2)CC1,> 100 µM (inactive),–
Cc1cc(Nc2cc(C3CC3)[nH]n2)nc(N2CCC[C@H]2C(N)=O)n1,> 100 µM (inactive),–
COc1ccc2ncc(Cl)c(CCN3CC[C@H](NCc4cc5c(cn4)OCS5)[C@@H](O)C3)c2n1,–,4.60
CCC(=O)Nc1ccc(C(=O)Nc2ccccc2-c2ccccc2)cc1,> 100 µM (inactive),–
Cc1ccc(Nc2nc(N)nc(CNC(c3nc4ccccc4[nH]3)C(C)C)n2)cc1 (stereo unspecified),> 100 µM (inactive),–
O=C1CSC(c2cccnc2)N1c1ccc(Cl)cc1Cl (stereo unspecified),> 100 µM (inactive),–
COCCn1c(-c2ccccc2)cnc1NCc1ccccc1OC,–,4.70
CC(CNS(=O)(=O)c1ccc(OC(F)F)cc1)c1ccc(NC(=O)c2ccncc2)cc1 (stereo unspecified),–,4.00
CC(CCc1ccccc1)NC(=O)CN(Cc1ccccn1)Cc1ccccn1 (stereo unspecified),> 160 µM (inactive),–
COc1ccc(Nc2nc(-c3ccccn3)cc(N3CCCC(O)C3)n2)cc1 (stereo unspecified),–,4.40
CC(C)n1c(-c2nonc2N)nc2cccc(OCCN3CCCC3)c21,> 100 µM (inactive),–
COc1ccc2ncc(F)c(CCN3CC[C@@H](NC(=O)c4cc5c(s4)CCC5)[C@@H](O)C3)c2n1,–,4.30
Cc1[nH]n2c(=O)c3c(nc2c1-c1ccc(Br)cc1)CCCC3,> 100 µM (inactive),–
NC(=O)c1cc(NC(=O)c2ccccc2COc2ccccc2)ccc1Cl,> 100 µM (inactive),–
CC(c1cc(Cl)cc(Cl)c1)N(C)c1ncc2c(N)nc(N)nc2n1 (stereo unspecified),–,4.20
CNc1cc(Cn2c(C(=O)c3cc(C)cc(Cl)c3)c(C(C)C)c(=O)[nH]c2=O)ccn1,> 100 µM (inactive),–
O=C1NCCn2ccc(Nc3nc(NC4CCC(O)CC4)ncc3Cl)c21 (stereo unspecified),> 100 µM (inactive),–
O=C(CCCn1cnc([N+](=O)[O-])n1)Nc1cccc(Cl)c1,> 100 µM (inactive),–
COc1ccccc1CNc1cc(C2CC2)nc(-c2nccn2C)n1,–,4.70
CCOC(=O)c1noc(N)c1-c1ccccc1,> 100 µM (inactive),–

SMILES,IC50,pIC50
O=C(CSc1nnc2ccc(-c3ccc(F)cc3)nn12)N1CCCCC1,> 100 µM (inactive),–
CNC(=O)C1Cc2ccccc2N1C(=O)Cc1ccc(F)cc1 (stereo unspecified),> 100 µM (inactive),–
O=[N+]([O-])c1cccc(Nc2cncc(-c3ccccc3CO)c2)c1,> 100 µM (inactive),–
COc1ccc(C(C)N(C)c2ncc3c(N)nc(N)nc3n2)cc1F (stereo unspecified),> 100 µM (inactive),–
c1ccc(Nc2nc3ccccc3[nH]2)nc1,–,4.10
Cc1ccc(C)c(-n2nnnc2Sc2nc([N+](=O)[O-])nn2C)c1,> 100 µM (inactive),–
Cc1[nH]nc2c1C(c1ccc(OCc3ccccc3F)cc1)SCC(=O)N2 (stereo unspecified),> 100 µM (inactive),–
CC(C)N(C(=O)CN1C(=O)C(N)C(=O)N(c2ccccc2)c2ccccc21)c1ccccc1 (stereo unspecified),> 100 µM (inactive),–
O=C(Nc1ccc(-c2nc3ccccc3c(=O)[nH]2)cc1)c1cccs1,> 100 µM (inactive),–
Cc1ccccc1NS(=O)(=O)c1ccc2[nH]cc(C(=O)NC3CCCCC3)c(=O)c2c1,–,4.49
Cc1ccc(S(=O)(=O)Cn2nnnc2C(c2cccnc2)N2CCN(c3ccccc3)CC2)cc1 (stereo unspecified),> 100 µM (inactive),–
CCc1ccc2nc(NC(=O)c3cc(N4CCOCC4)ccn3)sc2c1,> 100 µM (inactive),–
N#Cc1nc(C=Cc2ccccc2)oc1NCc1cccnc1,> 100 µM (inactive),–
O=C(NCCc1csc(-c2ccc(F)cc2)n1)c1ccco1,> 100 µM (inactive),–
O=C(Cc1ccccc1)Nc1[nH]nc2sc(C(=O)NC3CCCC3)cc12,–,4.30
CC(=O)NC1(c2ccccc2)CCN(CC(=O)Nc2ccccc2-c2ccccc2)CC1,> 100 µM (inactive),–
O=C(Nc1nc(-c2ccc(S(=O)(=O)N3CCOCC3)cc2)cs1)c1ccc([N+](=O)[O-])cc1,> 100 µM (inactive),–
CCCc1cc(N)nc(-c2cc(CCC)cc(N)n2)c1,–,4.49
N#Cc1cc(N2CCCC2=O)ccc1Sc1ccccc1CO,> 100 µM (inactive),–
COc1ccc(OC)c(S(=O)(=O)N(Cc2c(F)cccc2F)[C@@H]2CCN(C#N)C2)c1,–,4.10
CCN(CC)c1nc(N(C)C)nc2c1CN(Cc1ccccc1)CC2,–,4.20
COCc1cc(Nc2cccc(Cl)c2)nc(-c2ccccn2)n1,–,4.40
CS(=O)(=O)c1ccc(Nc2nccc(Nc3n[nH]c4ccc(F)cc34)n2)c(F)c1,–,4.10
CCC(c1ccc(F)cc1)n1cncc1-c1cnn(C)c1 (stereo unspecified),> 100 µM (inactive),–
CCCCn1c(=O)c2c(N)onc2n(CCCC)c1=O,–,4.30
CCCC(=O)N(Cc1ccccn1)c1nc2ccccc2s1,> 100 µM (inactive),–

SMILES,IC50,pIC50
Cc1ccc(-c2csc(NC(=O)C=Cc3ccc(S(=O)(=O)N4CCOCC4)cc3)n2)o1,> 100 µM (inactive),–
O=[N+]([O-])c1ccc(C2=CC(c3ccccc3)=NCCN2)cc1,–,4.30
COc1ccc(-c2nc3ccncc3c(=O)n2CCOc2ccccc2)cc1,> 100 µM (inactive),–
CC(C)c1nn(-c2nc(N)nc(-c3ccccn3)n2)c(N)c1C1CCCCC1,–,4.70
O=C1OCc2ccc(Nc3nccc(-c4cnn5ncccc45)n3)cc21,> 100 µM (inactive),–
N#Cc1cc(-c2ccnc(Nc3cccc(CN4CCOCC4)c3)n2)ccc1NCCN,–,4.30
CCc1cccc(CC)c1-n1c(SCC(=O)NC(=O)NCc2ccco2)nnc1-c1cccnc1,> 100 µM (inactive),–
O=C(NNC(=O)c1ccccn1)c1ccc(-c2ccccc2)cc1,> 100 µM (inactive),–
Cc1cc(-c2cccc3ccccc23)nc2nc(N)nc(N)c12,–,4.30
C=CCn1nc([N+](=O)[O-])nc1Oc1ccc(Cl)cc1Cl,> 100 µM (inactive),–
CCOc1ccc(Nc2ccc(S(=O)(=O)N3CCN(C)CC3)cc2[N+](=O)[O-])cc1OCC,> 100 µM (inactive),–
Cc1ccccc1CNC(=O)CN(Cc1ccccn1)Cc1ccccn1,> 160 µM (inactive),–
Cc1ccc2c(c1)SC(C(=O)Nc1n[nH]c(-c3ccccn3)n1)C2 (stereo unspecified),–,4.60
Cc1ccc(CNC2CCN(C[C@@H]3Cn4c(=O)ccc5ccc(=O)n3c54)CC2)cc1F,> 100 µM (inactive),–
CCN(Cc1nc2ccc(C(=O)N3CCN(c4ncccn4)CC3)cc2[nH]1)C1CCCc2cccnc21 (stereo unspecified),> 100 µM (inactive),–
CCc1c(C)nc(-n2nc(C)cc2NC(=O)COc2ccccc2F)[nH]c1=O,> 100 µM (inactive),–
Cc1ccccc1OCC(=O)N1CCCN(c2cccnn2)CC1,> 100 µM (inactive),–
COc1ccc(C(=O)N2CCC(Nc3cccnc3)C2)c(OC)n1 (stereo unspecified),> 100 µM (inactive),–
O=C(Nc1ccc(C(=O)N2CCCC2c2ccc3c(c2)OCCCO3)cc1)c1ccco1 (stereo unspecified),> 100 µM (inactive),–
O=C(O)[C@H]1C[C@@H]1c1ccc(-c2ccc(CN(CCc3ccccn3)C(=O)C3CCC3)cc2)cc1,> 100 µM (inactive),–
CCOc1ccc(NC(=O)c2ccc(NC(=O)NC3CCCCC3)cc2)cc1,> 100 µM (inactive),–
O=C1NCc2cccc(Nc3nc(NC4CCC(O)CC4)ncc3Br)c21 (stereo unspecified),> 100 µM (inactive),–
CCOc1ccc2nc(NC(=O)c3ccc([N+](=O)[O-])s3)sc2c1,–,4.49
